Legend:
Assay type in all cases: biochemical
PKR R510Q = PKR R510Q (Homo sapiens, UniProt P30613, R510Q); test: PKR R510Q Single Point Percent Activation Assay; details: for activation at 1 µM: read-out: Act. % 510Q
In short: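 Test compound was used at a single concentration of 1 μM and preincubated 60 min at room temperature with PKR R510Q (40 ng/well). The buffer was 50 mM Tris pH 7.5, 100 mM KCl, 5 mM MgCl2, 1 mM DTT and 0.03% BSA. The reaction was started with 0.2 mM ADP and read as OD340 in an LDH-coupled system (0.11 mM PEP, 180 μM NADH).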

PKR R532W = PKR R532W (Homo sapiens, UniProt P30613, R532W); test: PKR R532W Single Point Percent Activation Assay; details: for activation at 1 µM: read-out: Act, % 532W
In short: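 PKR R532W (100 ng/well) preincubated 60 min at RT with compound at 1 μM in Tris pH 7.5, KCl, MgCl2, DTT, BSA. Reaction started with ADP (0.36 mM), with PEP 0.1 mM, NADH 180 μM and LDH coupling; read at OD340, room temperature.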

PKR T384W = PKR T384W (Homo sapiens, UniProt P30613, T384W); test: PKR T384W Single Point Percent Activation Assay; details: for activation at 1 µM: read-out: Act. % 384W
In short: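 Soluble PKR T384W (300 ng/well) preincubated 60 min at RT with 1 μM compound in 50 mM Tris pH 7.5, 100 mM KCl, 5 mM MgCl2, 1 mM DTT, 0.03% BSA. Started with ADP (0.08 mM); PEP 0.23 mM, LDH-coupled NADH (180 μM) consumption read at OD340, room temperature.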

PKR wt = PKR wt (Homo sapiens, UniProt P30613); test: PKR WT Single Point Percent Activation Assay
In short: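 Single concentration of 1 μM compound preincubated 60 min at RT with PKR wt (100 ng/well) in Tris pH 7.5, KCl, MgCl2, DTT, BSA. Reaction started with ADP (0.48 mM final) with PEP 0.15 mM, coupled LDH/NADH (180 μM), read at OD340, room temperature; given as percent activation.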

PKR R532W, sequence (P30613 whole entry R532W): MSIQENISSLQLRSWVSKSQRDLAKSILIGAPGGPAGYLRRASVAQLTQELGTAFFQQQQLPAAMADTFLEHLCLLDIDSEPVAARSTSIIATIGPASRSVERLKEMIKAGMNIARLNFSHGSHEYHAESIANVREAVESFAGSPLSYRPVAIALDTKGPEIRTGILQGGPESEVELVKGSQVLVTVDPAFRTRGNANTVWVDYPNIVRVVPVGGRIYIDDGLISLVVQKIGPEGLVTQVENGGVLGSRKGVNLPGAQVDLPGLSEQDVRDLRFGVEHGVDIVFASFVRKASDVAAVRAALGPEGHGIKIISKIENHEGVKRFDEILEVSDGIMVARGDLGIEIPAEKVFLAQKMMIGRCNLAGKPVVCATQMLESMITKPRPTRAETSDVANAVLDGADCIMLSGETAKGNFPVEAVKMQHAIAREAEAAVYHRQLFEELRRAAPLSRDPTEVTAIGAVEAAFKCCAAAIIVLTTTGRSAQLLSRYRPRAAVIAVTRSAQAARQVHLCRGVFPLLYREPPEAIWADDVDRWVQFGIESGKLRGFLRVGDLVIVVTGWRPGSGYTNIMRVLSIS
PKR T384W, sequence (P30613 whole entry T384W): as the sequence (P30613 whole entry R532W) above, with T384W, W532R counted along it
PKR R510Q, sequence (P30613 whole entry R510Q): as the sequence (P30613 whole entry R532W) above, with R510Q, W532R counted along it
PKR wt, sequence (P30613 whole entry): as the sequence (P30613 whole entry R532W) above, with W532R counted along it

| Structure (SMILES) | activation at 1 µM (PKR R510Q) [%] | activation at 1 µM (PKR R532W) [%] | activation at 1 µM (PKR T384W) [%] | activation at 1 µM (PKR wt) [%] | Act. % 510Q (PKR R510Q; % activation at 1 μM) | Act, % 532W (PKR R532W; % activation at 1 μM) | Act. % 384W (PKR T384W; % activation at 1 μM) | Act. % WT (PKR wt; % activation at 1 μM) |
| --- | --- | --- | --- | --- | --- | --- | --- | --- |
| CC[C@H]1CN(C(C)c2cc(F)c(F)c(F)c2)CCN1C(=O)c1ccc(NS(=O)(=O)c2cccc3cccnc23)cc1 (stereo partly drawn) | 1 to 100 | 1 to 100 | 1 to 100 | 1 to 100 |  |  |  |  |
| O=C(c1ccc(NS(=O)(=O)c2cccc3cccnc23)cc1)N1CC2CCC(C1)N2Cc1cc(F)cc(F)c1 | 101 to 500 | 1 to 100 | 101 to 500 | 101 to 500 |  |  |  |  |
| O=C(c1ccc(NS(=O)(=O)c2cccc3cccnc23)cc1)N1C2CCC1CN(Cc1cc(F)cc(F)c1)C2 | 101 to 500 | 101 to 500 | 101 to 500 | 101 to 500 |  |  |  |  |
| CC1CN(Cc2cc(F)cc(F)c2)CC(C)N1C(=O)c1ccc(NS(=O)(=O)c2cccc3cccnc23)cc1 (stereo not drawn) | 101 to 500 | 101 to 500 | 1 to 100 | 1 to 100 |  |  |  |  |
| O=C(c1ccc(NS(=O)(=O)c2cccc3cccnc23)cc1)N1CCN(Cc2ccc(F)cc2)C[C@@H]1c1ccccc1 | 1 to 100 | 1 to 100 | 1 to 100 | 1 to 100 |  |  |  |  |
| CC(C)[C@H]1CN(C(C)c2ccc(F)cc2)CCN1C(=O)c1ccc(NS(=O)(=O)c2cccc3cccnc23)cc1 (stereo partly drawn) | 1 to 100 | 101 to 500 | 101 to 500 | 101 to 500 |  |  |  |  |
| O=C1CN(Cc2cc(F)cc(F)c2)CCN1C(=O)c1ccc(NS(=O)(=O)c2cccc3cccnc23)cc1 | 1 to 100 | 101 to 500 | 101 to 500 | 101 to 500 |  |  |  |  |
| CC[C@H]1CN(Cc2cc(F)cc(F)c2)CCN1C(=O)c1ccc(NS(=O)(=O)c2cccc3cccnc23)cc1 | 101 to 500 | 101 to 500 | 101 to 500 | 101 to 500 |  |  |  |  |
| O=C(c1ccc(NS(=O)(=O)c2cccc3cccnc23)cc1)N1C2CCC1CN(CC1CC1)C2 | 1 to 100 | 101 to 500 | 101 to 500 | 101 to 500 |  |  |  |  |
| CC1CN(Cc2c(F)cc(F)cc2F)CC(C)N1C(=O)c1ccc(NS(=O)(=O)c2cccc3cccnc23)cc1 (stereo not drawn) | 101 to 500 | 101 to 500 | 1 to 100 | 101 to 500 |  |  |  |  |
| C[C@H]1CN(Cc2ccc(Cl)c(F)c2)CCN1C(=O)c1ccc(NS(=O)(=O)c2cccc3cccnc23)cc1Cl | 1 to 100 | 101 to 500 | 101 to 500 | 1 to 100 |  |  |  |  |
| O=C(c1ccc(NS(=O)(=O)c2cccc3cccnc23)cc1)N1CCN(Cc2ccc(F)cc2)c2ccccc21 | 1 to 100 | 1 to 100 | 1 to 100 | 1 to 100 |  |  |  |  |
| C[C@H]1CN(Cc2ccc(F)c(F)c2F)CCN1C(=O)c1ccc(NS(=O)(=O)c2cccc3cccnc23)cc1 [drawing 87] |  |  |  |  | A (a % activation at 1 μM of from 1 to 100) | B (a % activation at 1 μM of from 101 to 500) | A (a % activation at 1 μM of from 1 to 100) | A (a % activation at 1 μM of from 1 to 100) |
| CC[C@H]1CN(C(C)c2cc(F)cc(F)c2)CCN1C(=O)c1ccc(NS(=O)(=O)c2cccc3cccnc23)cc1 (stereo partly drawn) | 1 to 100 | 1 to 100 | 1 to 100 | 1 to 100 |  |  |  |  |
| O=C(c1ccc(NS(=O)(=O)c2cccc3cccnc23)cc1)N1CCN(Cc2cc(F)cc(F)c2)c2ccccc21 | 1 to 100 | 101 to 500 | 101 to 500 | 101 to 500 |  |  |  |  |
| COc1ccccc1N1C[C@@H](C)N(C(=O)c2ccc(NS(=O)(=O)c3cccc4cccnc34)cc2)[C@@H](C)C1 | 101 to 500 | 101 to 500 | 101 to 500 | 101 to 500 |  |  |  |  |
| CC1CN(Cc2cc(F)c(F)c(F)c2)CC(C)N1C(=O)c1ccc(NS(=O)(=O)c2cccc3cccnc23)cc1 (stereo not drawn) | 1 to 100 | 101 to 500 | 1 to 100 | 1 to 100 |  |  |  |  |

Now from value to compound, other results behind:

| activation at 1 µM (PKR R510Q) [%] | activation at 1 µM (PKR R532W) [%] | activation at 1 µM (PKR T384W) [%] | activation at 1 µM (PKR wt) [%] | Structure (SMILES) | Act. % 510Q (PKR R510Q; % activation at 1 μM) | Act, % 532W (PKR R532W; % activation at 1 μM) | Act. % 384W (PKR T384W; % activation at 1 μM) | Act. % WT (PKR wt; % activation at 1 μM) |
| --- | --- | --- | --- | --- | --- | --- | --- | --- |
| 101 to 500 | 101 to 500 | 101 to 500 | 101 to 500 | C[C@@H]1CN(Cc2ccccc2)CCN1C(=O)c1ccc(NS(=O)(=O)c2cccc3cccnc23)cc1 |  |  |  |  |
| 1 to 100 | 1 to 100 | 1 to 100 | 1 to 100 | CC(c1ccccc1F)N1CCN(C(=O)c2ccc(NS(=O)(=O)c3cccc4cccnc34)cc2)[C@H](C)C1 (stereo partly drawn) |  |  |  |  |
| 1 to 100 | 1 to 100 | 1 to 100 | 1 to 100 | C[C@@H]1CN(C(=O)OC2CCOCC2)CCN1C(=O)c1ccc(NS(=O)(=O)c2cccc3cccnc23)cc1 |  |  |  |  |
| 1 to 100 | 101 to 500 | 101 to 500 | 101 to 500 | C[C@@H]1CN(Cc2c(F)ccc(F)c2F)CCN1C(=O)c1ccc(NS(=O)(=O)c2cccc3cccnc23)cc1 |  |  |  |  |
| 1 to 100 | 1 to 100 | 101 to 500 | 101 to 500 | C[C@H]1CN(Cc2c(F)ccc(F)c2F)CCN1C(=O)c1ccc(NS(=O)(=O)c2cccc3cccnc23)cc1 |  |  |  |  |
| 1 to 100 | 1 to 100 | 1 to 100 | 1 to 100 | C[C@@H]1CN(C(=O)OC2CCCCC2)CCN1C(=O)c1ccc(NS(=O)(=O)c2cccc3cccnc23)cc1 |  |  |  |  |
| 1 to 100 | 1 to 100 | 101 to 500 | 1 to 100 | C[C@H]1CN(Cc2cc(F)c(F)c(F)c2)CCN1C(=O)c1ccc(NS(=O)(=O)c2cccc3cccnc23)cc1 |  |  |  |  |
| 101 to 500 | 101 to 500 | 1 to 100 | 1 to 100 | CC(C)OC(=O)N1CCN(C(=O)c2ccc(NS(=O)(=O)c3cccc4cccnc34)cc2)[C@@H](C)C1 |  |  |  |  |
| 101 to 500 | 101 to 500 | 101 to 500 | 101 to 500 | CC(c1c(F)cc(F)cc1F)N1CCN(C(=O)c2ccc(NS(=O)(=O)c3cccc4cccnc34)cc2)[C@@H](C)C1 (stereo partly drawn) |  |  |  |  |
| 101 to 500 | 1 to 100 | 101 to 500 | 1 to 100 | C[C@@H]1CN(Cc2ccc(F)c(F)c2F)CCN1C(=O)c1ccc(NS(=O)(=O)c2cccc3cccnc23)cc1 |  |  |  |  |
| 1 to 100 | 101 to 500 | 1 to 100 | 101 to 500 | C[C@@H]1CN(C(=O)O[C@@H]2CCOC2)CCN1C(=O)c1ccc(NS(=O)(=O)c2cccc3cccnc23)cc1 |  |  |  |  |
| 1 to 100 | 101 to 500 | 101 to 500 | 101 to 500 | C[C@@H]1CN(CC2CCCCO2)CCN1C(=O)c1ccc(NS(=O)(=O)c2cccc3cccnc23)cc1 (stereo partly drawn) |  |  |  |  |
| 1 to 100 | 101 to 500 | 101 to 500 | 1 to 100 | CC(c1c(F)ccc(F)c1F)N1CCN(C(=O)c2ccc(NS(=O)(=O)c3cccc4cccnc34)cc2)[C@@H](C)C1 (stereo partly drawn) |  |  |  |  |
| 101 to 500 | 101 to 500 | 1 to 100 | 101 to 500 | CC(c1cc(F)c(F)cc1F)N1CCN(C(=O)c2ccc(NS(=O)(=O)c3cccc4cccnc34)cc2)[C@H](C)C1 (stereo partly drawn) |  |  |  |  |
| 1 to 100 | 101 to 500 | 101 to 500 | 101 to 500 | CC1CN(CC2CC2)CC(C)N1C(=O)c1ccc(NS(=O)(=O)c2cccc3cccnc23)cc1 (stereo not drawn) |  |  |  |  |
| 1 to 100 | 101 to 500 | 101 to 500 | 101 to 500 | CC[C@H]1CN(Cc2ccc(F)cc2)CCN1C(=O)c1ccc(NS(=O)(=O)c2cccc3cccnc23)cc1 |  |  |  |  |
| 1 to 100 | 101 to 500 | 101 to 500 | 101 to 500 | CC(c1c(F)cc(F)cc1F)N1CCN(C(=O)c2ccc(NS(=O)(=O)c3cccc4cccnc34)cc2)[C@H](C)C1 (stereo partly drawn) |  |  |  |  |
| 101 to 500 | 1 to 100 | 101 to 500 | 101 to 500 | C[C@H]1CN(Cc2ccc(F)cc2)CCN1C(=O)c1ccc(NS(=O)(=O)c2cccc3cccnc23)cc1 |  |  |  |  |
| 1 to 100 | 101 to 500 | 1 to 100 | 1 to 100 | C[C@@H]1CN(C(=O)OCC2CC2)CCN1C(=O)c1ccc(NS(=O)(=O)c2cccc3cccnc23)cc1 |  |  |  |  |
